Data reported in patent US7138361B2, “Herbicidal heterocycles” (E. I. du Pont de Nemours and Company, priority 2000, dated 2006).

Legend:
Assay type in all cases: in vivo
[1] = system: wheat (Triticum aestivum); test: Test B postemergence; details: 13 to 15 days
Method in brief: (§1)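 Ratings on a 0 to 100 visual scale (100 complete control) compare treated plants with controls 13 to 15 days after application. Treatments were pre- or postemergence sprays of compound in non-phytotoxic solvent with surfactant.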

wild oat (Avena fatua) = test: Test B postemergence; details: 13 to 15 days
Method in brief: as §1

[2] = system: barnyardgrass (Echinochloa crus-galli); test: Test B postemergence; details: 13 to 15 days
Method in brief: as §1

corn (Zea mays) [3] = test: Test B postemergence; details: 13 to 15 days
Method in brief: as §1

[4] = system: smallflower flatsedge (Cyperus difformis); test: Test C flooded paddy test; details: for Flatsedge plant response rating: Flooded Paddy, scale 0 to 100, 0 no effect, 100 complete control; for Plant response rating, Flatsedge: flooded paddy test, scale 0 to 100 (0 no effect, 100 complete control)
Method in brief: (§2)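 Response on a 0-to-100 scale (no effect to complete control) was assessed by eye versus controls. Plants had reached 2 leaves when treated in flooded paddy conditions. The assessment took place after 12–14 days of greenhouse growth.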

rice (Oryza saliva) = test: Test C flooded paddy test; details: for Rice plant response rating: Flooded Paddy, scale 0 to 100, 0 no effect, 100 complete control; for Plant response rating, Rice: flooded paddy test, scale 0 to 100 (0 no effect, 100 complete control)
Method in brief: as §2

[5] = system: duck salad (Heteranthera limosa); test: Test C flooded paddy test; details: for Ducksalad plant response rating: Flooded Paddy, scale 0 to 100, 0 no effect, 100 complete control; for Plant response rating, Ducksalad: flooded paddy test, scale 0 to 100 (0 no effect, 100 complete control)
Method in brief: as §2

[6] = system: barnyardgrass (Echinochloa crus-galli); test: Test C flooded paddy test; details: for Barnyardgrass plant response rating: Flooded Paddy, scale 0 to 100, 0 no effect, 100 complete control; for Plant response rating, Barnyardgrass: flooded paddy test, scale 0 to 100 (0 no effect, 100 complete control)
Method in brief: as §2

Sunflower = test: Test C preemergence; details: scale 0 to 100, 0 no effect, 100 complete control
kochia (Kochia scoparia) = test: Test C preemergence; details: for Plant response rating, Kochia: scale 0 to 100, 0 no effect, 100 complete control; for Plant response rating (0 to 100), Kochia: visual evaluation after 12 to 14 days
Method in brief: (§3)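 Seeds are planted and treated before emergence; for the postemergence test, plants at 1- to 4-leaf stage (2–18 cm) receive the same formulation, a solvent blend containing surfactant. Plants stay in the greenhouse 12–14 days, then response is scored visually from 0 (none) to 100 (complete control).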

[7] = system: johnsongrass (Sorghum halepense); test: Test C preemergence; details: for Plant response rating, Johnsongrass: scale 0 to 100, 0 no effect, 100 complete control; for Plant response rating (0 to 100), Johnsongrass: visual evaluation after 12 to 14 days
Method in brief: as §3

[8] = system: woolly cupgrass (Eriochloa villosa); test: Test C preemergence; details: for Plant response rating, Cupgrass, Woolly: scale 0 to 100, 0 no effect, 100 complete control; for Plant response rating (0 to 100), Cupgrass, Woolly: visual evaluation after 12 to 14 days
Method in brief: as §3

corn (Zea mays) [9] = test: Test C preemergence; details: for Plant response rating, Corn: scale 0 to 100, 0 no effect, 100 complete control; for Plant response rating (0 to 100), Corn: visual evaluation after 12 to 14 days
Method in brief: as §3

Nightshade [10] = test: Test C preemergence; details: scale 0 to 100, 0 no effect, 100 complete control
[11] = system: pigweed (Amaranthus retroflexus); test: Test C preemergence; details: preemergence; for Plant response rating (0 to 100), Pigweed: visual evaluation after 12 to 14 days; for Plant response rating, Pigweed: scale 0 to 100, 0 no effect, 100 complete control
Method in brief: as §3

soybean (Glycine max) = test: Test C preemergence; details: preemergence; for Plant response rating (0 to 100), Soybean: visual evaluation after 12 to 14 days; for Plant response rating, Soybean: scale 0 to 100, 0 no effect, 100 complete control
Method in brief: as §3

[12] = system: yellow nutsedge (Cyperus esculentus); test: Test C preemergence; details: for Plant response rating, Nutsedge: scale 0 to 100, 0 no effect, 100 complete control; for Plant response rating (0 to 100), Nutsedge: visual evaluation after 12 to 14 days
Method in brief: as §3

Nightshade [13] = test: Test C preemergence; details: visual evaluation after 12 to 14 days
[14] = Rate 125 g/ha, scale 0 (no effect) to 100 (complete control)
[15] = Rate 500 g/ha, scale 0 to 100, 0 is no effect, 100 is complete control

Compound: CC1(c2ccn(C3OCN(c4cccc(C(F)(F)F)c4)C3=O)n2)CC1 (stereo not drawn) [Compound 62]
- Plant response rating, Wheat [1, 14]: 0
- Plant response rating, Wheat [1, 15]: 0
- Plant response rating, Wild Oat (wild oat (Avena fatua); [14]): 0
- Plant response rating, Wild Oat (wild oat (Avena fatua); [15]): 0
- Plant response rating, Barnyardgrass [2, 14]: 0
- Plant response rating, Barnyardgrass [2, 15]: 0
- Plant response rating, Corn (corn (Zea mays) [3]; [14]): 0
- Plant response rating, Corn (corn (Zea mays) [3]; [15]): 0
- Flatsedge plant response rating ([4]; Rate 250 g/ha): 90
- Flatsedge plant response rating ([4]; Rate 500 g/ha): 100
- Plant response rating, Flatsedge ([4]; Rate 62 g/ha): 0
- Plant response rating, Flatsedge ([4]; Rate 125 g/ha): 90
- Rice plant response rating (rice (Oryza saliva); Rate 250 g/ha): 50
- Rice plant response rating (rice (Oryza saliva); Rate 500 g/ha): 50
- Plant response rating, Rice (rice (Oryza saliva); Rate 62 g/ha): 0
- Plant response rating, Rice (rice (Oryza saliva); Rate 125 g/ha): 0
- Ducksalad plant response rating ([5]; Rate 250 g/ha): 0
- Ducksalad plant response rating ([5]; Rate 500 g/ha): 0
- Plant response rating, Ducksalad ([5]; Rate 62 g/ha): 0
- Plant response rating, Ducksalad ([5]; Rate 125 g/ha): 0
- Barnyardgrass plant response rating ([6]; Rate 250 g/ha): 20
- Barnyardgrass plant response rating ([6]; Rate 500 g/ha): 80
- Plant response rating, Barnyardgrass ([6]; Rate 62 g/ha): 0
- Plant response rating, Barnyardgrass ([6]; Rate 125 g/ha): 20
- Plant response rating, Sunflower (Sunflower; Rate 125 g/ha): 0
- Plant response rating, Kochia (kochia (Kochia scoparia); Rate 62 g/ha): 0
- Plant response rating (0 to 100), Kochia (kochia (Kochia scoparia); preemergence, Rate 250 g/ha): 90
- Plant response rating (0 to 100), Kochia (kochia (Kochia scoparia); preemergence, Rate 500 g/ha): 90
- Plant response rating, Kochia (kochia (Kochia scoparia); preemergence, Rate 125 g/ha): 60
- Plant response rating, Johnsongrass ([7]; Rate 62 g/ha): 20
- Plant response rating (0 to 100), Johnsongrass ([7]; preemergence, Rate 250 g/ha): 60
- Plant response rating (0 to 100), Johnsongrass ([7]; preemergence, Rate 500 g/ha): 100
- Plant response rating, Johnsongrass ([7]; preemergence, Rate 125 g/ha): 40
- Plant response rating, Cupgrass, Woolly ([8]; Rate 62 g/ha): 30
- Plant response rating (0 to 100), Cupgrass, Woolly ([8]; preemergence, Rate 250 g/ha): 90
- Plant response rating (0 to 100), Cupgrass, Woolly ([8]; preemergence, Rate 500 g/ha): 90
- Plant response rating, Cupgrass, Woolly ([8]; preemergence, Rate 125 g/ha): 50
- Plant response rating, Corn (corn (Zea mays) [9]; Rate 62 g/ha): 0
- Plant response rating (0 to 100), Corn (corn (Zea mays) [9]; preemergence, Rate 250 g/ha): 0
- Plant response rating (0 to 100), Corn (corn (Zea mays) [9]; preemergence, Rate 500 g/ha): 20
- Plant response rating, Corn (corn (Zea mays) [9]; preemergence, Rate 125 g/ha): 0
- Plant response rating, Nightshade (Nightshade [10]; Rate 62 g/ha): 0
- Plant response rating, Nightshade (Nightshade [10]; Rate 125 g/ha): 0
- Plant response rating (0 to 100), Pigweed ([11]; Rate 250 g/ha): 0
- Plant response rating (0 to 100), Pigweed ([11]; Rate 500 g/ha): 100
- Plant response rating, Pigweed ([11]; Rate 125 g/ha): 0
- Plant response rating (0 to 100), Soybean (soybean (Glycine max); Rate 250 g/ha): 0
- Plant response rating (0 to 100), Soybean (soybean (Glycine max); Rate 500 g/ha): 0
- Plant response rating, Soybean (soybean (Glycine max); Rate 125 g/ha): 0
- Plant response rating, Nutsedge ([12]; Rate 62 g/ha): 0
- Plant response rating (0 to 100), Nutsedge ([12]; preemergence, Rate 250 g/ha): 20
- Plant response rating (0 to 100), Nutsedge ([12]; preemergence, Rate 500 g/ha): 70
- Plant response rating, Nutsedge ([12]; preemergence, Rate 125 g/ha): 0
- Plant response rating (0 to 100), Nightshade (Nightshade [13]; Rate 250 g/ha): 0
- Plant response rating (0 to 100), Nightshade (Nightshade [13]; Rate 500 g/ha): 0

Compound: CC1(c2ccn(C3SCN(c4cccc(C(F)(F)F)c4)C3=O)n2)CC1 (stereo not drawn) [Compound 64]
- Plant response rating, Wheat [1, 14]: 0
- Plant response rating, Wheat [1, 15]: 0
- Plant response rating, Wild Oat (wild oat (Avena fatua); [14]): 0
- Plant response rating, Wild Oat (wild oat (Avena fatua); [15]): 0
- Plant response rating, Barnyardgrass [2, 14]: 0
- Plant response rating, Barnyardgrass [2, 15]: 50
- Plant response rating, Corn (corn (Zea mays) [3]; [14]): 0
- Plant response rating, Corn (corn (Zea mays) [3]; [15]): 20
- Flatsedge plant response rating ([4]; Rate 250 g/ha): 100
- Flatsedge plant response rating ([4]; Rate 500 g/ha): 100
- Plant response rating, Flatsedge ([4]; Rate 62 g/ha): 100
- Plant response rating, Flatsedge ([4]; Rate 125 g/ha): 100
- Rice plant response rating (rice (Oryza saliva); Rate 250 g/ha): 80
- Rice plant response rating (rice (Oryza saliva); Rate 500 g/ha): 90
- Plant response rating, Rice (rice (Oryza saliva); Rate 62 g/ha): 0
- Plant response rating, Rice (rice (Oryza saliva); Rate 125 g/ha): 20
- Ducksalad plant response rating ([5]; Rate 250 g/ha): 90
- Ducksalad plant response rating ([5]; Rate 500 g/ha): 90
- Plant response rating, Ducksalad ([5]; Rate 62 g/ha): 0
- Plant response rating, Ducksalad ([5]; Rate 125 g/ha): 30
- Barnyardgrass plant response rating ([6]; Rate 250 g/ha): 80
- Barnyardgrass plant response rating ([6]; Rate 500 g/ha): 100
- Plant response rating, Barnyardgrass ([6]; Rate 62 g/ha): 20
- Plant response rating, Barnyardgrass ([6]; Rate 125 g/ha): 80
- Plant response rating, Sunflower (Sunflower; Rate 125 g/ha): 20
- Plant response rating, Sunflower (Sunflower; Rate 250 g/ha): 50
- Plant response rating, Kochia (kochia (Kochia scoparia); Rate 62 g/ha): 90
- Plant response rating (0 to 100), Kochia (kochia (Kochia scoparia); preemergence, Rate 250 g/ha): 100
- Plant response rating (0 to 100), Kochia (kochia (Kochia scoparia); preemergence, Rate 500 g/ha): 100
- Plant response rating, Kochia (kochia (Kochia scoparia); preemergence, Rate 125 g/ha): 100
- Plant response rating, Johnsongrass ([7]; Rate 62 g/ha): 30
- Plant response rating (0 to 100), Johnsongrass ([7]; preemergence, Rate 250 g/ha): 90
- Plant response rating (0 to 100), Johnsongrass ([7]; preemergence, Rate 500 g/ha): 100
- Plant response rating, Johnsongrass ([7]; preemergence, Rate 125 g/ha): 70
- Plant response rating, Cupgrass, Woolly ([8]; Rate 62 g/ha): 30
- Plant response rating (0 to 100), Cupgrass, Woolly ([8]; preemergence, Rate 250 g/ha): 90
- Plant response rating (0 to 100), Cupgrass, Woolly ([8]; preemergence, Rate 500 g/ha): 100
- Plant response rating, Cupgrass, Woolly ([8]; preemergence, Rate 125 g/ha): 50
- Plant response rating, Corn (corn (Zea mays) [9]; Rate 62 g/ha): 0
- Plant response rating (0 to 100), Corn (corn (Zea mays) [9]; preemergence, Rate 250 g/ha): 30
- Plant response rating (0 to 100), Corn (corn (Zea mays) [9]; preemergence, Rate 500 g/ha): 40
- Plant response rating, Corn (corn (Zea mays) [9]; preemergence, Rate 125 g/ha): 0
- Plant response rating, Nightshade (Nightshade [10]; Rate 62 g/ha): 30
- Plant response rating, Nightshade (Nightshade [10]; Rate 125 g/ha): 70
- Plant response rating, Nightshade (Nightshade [10]; Rate 250 g/ha): 90
- Plant response rating (0 to 100), Pigweed ([11]; Rate 500 g/ha): 100
- Plant response rating, Pigweed ([11]; Rate 125 g/ha): 100
- Plant response rating, Pigweed ([11]; Rate 250 g/ha): 100
- Plant response rating (0 to 100), Soybean (soybean (Glycine max); Rate 500 g/ha): 30
- Plant response rating, Soybean (soybean (Glycine max); Rate 125 g/ha): 20
- Plant response rating, Soybean (soybean (Glycine max); Rate 250 g/ha): 20
- Plant response rating, Nutsedge ([12]; Rate 62 g/ha): 0
- Plant response rating (0 to 100), Nutsedge ([12]; preemergence, Rate 500 g/ha): 50
- Plant response rating, Nutsedge ([12]; preemergence, Rate 125 g/ha): 0
- Plant response rating, Nutsedge ([12]; preemergence, Rate 250 g/ha): 50
- Plant response rating (0 to 100), Nightshade (Nightshade [13]; Rate 500 g/ha): 90
